Assay results taken from USRE47078E1, “Polymorphic forms of N-[4-(trifluoromethyl)benzyl]-4-methoxybutyramide” (Laboratorio Farmaceutico C.T. S.R.L., priority 2007, dated 2018).
In brackets after ≈: the same amount, converted by molar mass. Entries after “also recorded” stand apart in the source; their conditions may differ. Where two headings read alike, the source gives them in different places.

Experiments:
[1] = Acute toxicity in mouse; details: in vivo, single
Description: Single and repeated-dose toxicity studies in rodents and non-rodents were carried out to support the clinical trials of the test compound, i.e. polymorphic Form A. Single toxicity studies were performed in mice and rats by the intraperitoneal and the oral routes. Repeated oral studies (28 days administration followed by 14 days recovery period) were performed in rats and dogs.

[2] = Solubility of the polymorphs at different pH (HPLC assay); format: physicochemical; details: for solubility at 24 h / solubility at 30 min: thermodynamic from solid; for solubility at 24 h: read-out: Solubility, After 24 hours; for solubility at 30 min: read-out: Solubility, Initial evaluation
Description: Both samples of powder (Form A and Form B) were used in order to evaluate the solubility properties of the two polymorphs at different pH.
The two samples were tested in the following pH conditions: • Hydrochloric acid buffer at pH=1.2 • Acetic acid at pH=3.0 • Phosphate buffer at pH=3.0 • Phosphate buffer at pH=4.6 • Phosphate buffer at pH=6.0 • Phosphate buffer at pH=7.4 • Alkaline phosphate buffer at pH=8.0
0.5 g of each samples were dissolved in a glass flask using 100 ml of the appropriate buffer. The two samples were then kept under stirring for 30 minutes. If the samples were completed dissolved, 1 additional gram was added in the flask and stirred for 30 minutes. The procedure was repeated till the presence of undissolved product in the bottom of the flask. After such a dissolution procedure, the samples were stored for 24 hours and then the dissolved amounts of Form A and Form B, respectively, were determined by HPLC assay.

[3] = tested on: conscious dogs; test: Cardiovascular evaluation in conscious dogs (telemetry); format: in vivo, dog
Description: (§1) The possible adverse effects of polymorphic Form A on the CNS, cardiovascular, respiratory and immune functions were evaluated in vitro and in vivo (rats and dogs) in different experimental models. In the in vivo tests, the tested compound was always given by single oral administration at the doses of 100, 300 and 1000 mg/kg.
Any possible effect of polymorphic Form A administered at the doses of 100, 300 and 1000 mg/kg by oral route on blood pressure, heart rate and electrocardiogram was evaluated in conscious dogs, free to move about, previously instrumented with telemetric transmitters. In the first part of the study, only telemetric measurements were recorded; the recording of the parameters started at least 24 hours before the administration of the compound and were continued for 24 hours following dosing. In the second part, only the highest dose of 1000 mg/kg was administered and complementary investigations such as 6-lead electrocardiogram (leads I, II, III, aVL, aVR and aVF), blood sampling and observation of the animals were performed before treatment and 3 hours post-treatment.

[4] = tested on: Rat (Bone marrow Cells); test: Micronucleus test in rat bone marrow; format: in vivo; details: os, single, 500-2000 mg/kg, 24 and 48 hours
Description: Any clastogenic or spindle poison activity of polymorphic Form A was investigated by detecting micronucleated polychromatic erythrocytes in the bone marrow of treated rats. The study was conducted in compliance with the EC Guidelines. The method involved searching for the presence of a chromosome fragment, or a number of chromosomes, resulting from a deletion or a mitotic spindle poison effect, in the polychromatic erythrocytes in the bone marrow. Clastogenic products may produce, at the moment of mitosis, chromosome breakage, while spindle poisons disturb the structure of the mitotic spindles. An acentric fragment of a chromosome that has not migrated normally is not retained in the nucleus of the daughter cell, and appears in the cytoplasm. It is then known as a Howell-Jolly body or micronucleus. The micronucleus can be detected in polychromatic erythrocytes, as these cells expel their main nucleus shortly after the last mitosis and the micronucleus remains in the red blood cells. Male and female Sprague Dawley rats were treated orally once with 2000-1000-500 mg/kg of polymorphic Form A and 24 and 48 hours after the treatment their femurs were sampled and bone marrow cells were extracted.

[5] = tested on: rats; test: Hexobarbital sleeping time in rats; format: in vivo, rat
Description: as §1
The test consists in the measurement of the duration of hexobarbital-induced sleep; substances with a sedative or antisleep action cause increase or decrease respectively in the duration of hexobarbital induced sleep.

[6] = acetic acid, pH 3, aqueous buffer, pH 3.0 (acetic acid)
[7] = alkaline phosphate buffer, pH 8, aqueous buffer, pH 8.0
[8] = buffer at pH 6.8 (buffer type not named for this pH), pH 6.8, aqueous buffer, pH 6.8
[9] = hydrochloric acid buffer, pH 1.2, simulated gastric fluid, pH 1.2
[10] = phosphate buffer, pH 3, aqueous buffer, pH 3.0 (phosphate buffer)
[11] = phosphate buffer, pH 4.6, aqueous buffer, pH 4.6
[12] = phosphate buffer, pH 6, aqueous buffer, pH 6.0
[13] = phosphate buffer, pH 7.4, aqueous buffer, pH 7.4

**Q.** For `COCCCC(=O)NCc1ccc(C(F)(F)F)cc1` [Polymorphic Form A, N-[4-(trifluoromethyl)benzyl]-4-methoxybutyramide], which LD50 ([1]; ip, dose-range 200-1000) is on record?
**A.** ~800 mg/kg

**Q.** And the LD50 ([1]; oral, os, dose-range 2000-4000)?
**A.** > 4000 mg/kg

**Q.** And the solubility at 24 h [2, 6]?
**A.** 160 µg/mL (≈ 582 µM)

**Q.** What about the solubility at 30 min [2, 6] of the same molecule?
**A.** 124 µg/mL (≈ 450 µM)

**Q.** And the solubility at 24 h [2, 7]?
**A.** 142 µg/mL (≈ 515 µM)

**Q.** And the solubility at 30 min [2, 7]?
**A.** 134 µg/mL (≈ 486 µM)

**Q.** What about the solubility at 24 h [2, 8] of the same molecule?
**A.** 164 µg/mL (≈ 597 µM)

**Q.** And the solubility at 30 min [2, 8]?
**A.** 106 µg/mL (≈ 385 µM)

**Q.** What about the “Differences in solubility / dissolution properties between the two forms” value ([2]; dissolution tests on each polymorph) of the same molecule?
**A.** have not shown differences in the solubility properties

**Q.** And the solubility at 24 h [2, 9]?
**A.** 160 µg/mL (≈ 580 µM)

**Q.** What about the solubility at 30 min [2, 9] of the same molecule?
**A.** 153 µg/mL (≈ 554 µM)

**Q.** And the solubility at 24 h [2, 10]?
**A.** 151 µg/mL (≈ 548 µM)

**Q.** And the solubility at 30 min [2, 10]?
**A.** 116 µg/mL (≈ 423 µM)

**Q.** What about the solubility at 24 h [2, 11] of the same molecule?
**A.** 145 µg/mL (≈ 528 µM)

**Q.** And the solubility at 30 min [2, 11]?
**A.** 132 µg/mL (≈ 481 µM)

**Q.** What about the solubility at 24 h [2, 12] of the same molecule?
**A.** 140 µg/mL (≈ 508 µM)

**Q.** What about the solubility at 30 min [2, 12] of the same molecule?
**A.** 118 µg/mL (≈ 430 µM)

**Q.** What about the solubility at 24 h [2, 13] of the same molecule?
**A.** 140 µg/mL (≈ 508 µM)

**Q.** What about the solubility at 30 min [2, 13] of the same molecule?
**A.** 117 µg/mL (≈ 426 µM)

**Q.** And the solubility at 24 h ([2]; water, Water)?
**A.** 164 µg/mL (≈ 596 µM)

**Q.** And the solubility at 30 min ([2]; water, Water)?
**A.** 138 µg/mL (≈ 501 µM)

**Q.** What about the “Blood pressure, heart rate and electrocardiogram tracing” value ([3]; 100 mg/kg oral) of the same molecule?
**A.** did not induce relevant changes

**Q.** And the Presence in plasma ([3]; 1000 mg/kg oral, 3 hours after the administration)?
**A.** confirmed the presence

**Q.** What about the 6-lead electrocardiogram ([3]; 1000 mg/kg oral, before and 3 hours after dosing) of the same molecule?
**A.** No disturbance in the 6-lead electrocardiogram

**Q.** And the Vomiting ([3]; 1000 mg/kg oral, between 0.5 and 17 hours after dosing)?
**A.** All animals vomited

**Q.** And the “Arterial blood pressure (mean, systolic and diastolic)” value ([3]; 300 and 1000 mg/kg oral)?
**A.** slight increase in arterial blood pressure

**Q.** And the “PR and PQ interval durations” value ([3]; 300 and 1000 mg/kg oral)?
**A.** slight decrease in PR and PQ interval durations

**Q.** What about the “QT interval duration corrected for heart rate (Sarma's method)” value ([3]; 300 and 1000 mg/kg oral) of the same molecule?
**A.** slight increase in QT interval duration

**Q.** And the “Electrocardiogram (lead II), T wave morphology” value ([3]; all the doses tested)?
**A.** No disturbance in the electrocardiogram (lead II)

**Q.** And the “Genotoxicity, Micronucleus test result” value [4]?
**A.** no clastogenic activity; also recorded: Negative

**Q.** And the “Time taken to fall asleep and duration of the sleep” value ([5]; highest dose (1000 mg/kg) oral)?
**A.** significant decrease of the time taken to fall asleep and of the duration of the sleep

**Q.** What about the Sleep duration ([5]; intermediate dose (300 mg/kg) oral) of the same molecule?
**A.** slight decrease in sleep duration

**Q.** And the “Time taken to fall asleep and duration of the sleep” value ([5]; lowest dose (100 mg/kg) oral)?
**A.** No statistical significant effect
